Experimental data taken from US9085570B2, “Substituted benzamides and their uses” (The Board of Trustees of the Leland Stanford Junior …, priority 2010, dated 2015).
pIC50: −log10 of the molar value.

Columns and labels:
[1] = test system: RCC4 with VHL-reintroduced (RCC4/VHL); assay: XTT cell viability assay in RCC4/VHL cells, selectivity ratio versus RCC4; type: cell-based; conditions: Ratio = IC50RCC4/VHL/IC50RCC4
Description: (§1) Cell Culture. RCC4 parental and RCC4 with VHL-reintroduced (RCC4/VHL), SN12C and SN12C-CSCG-VHL shRNA were maintained in DMEM supplemented with 10% FCS.
(§2) Cell Viability Assays. For 2,3-bis[2-methoxy-4-nitro-5-sulfophenyl]-2H-tetrazolium-5-carboxanilide (XTT) assays, five thousand cells were plated in 96-well plates. The next day, vehicle (DMSO) or drug was added by serial dilution. Four days later, media were aspirated, XTT solution (0.3 mg/ml of XTT (Sigma), […] N-methyl dibenxopyrazine methyl sulfate (Simga) in phenol red-free media) was added, and the plates were incubated at 37° C. for 1-2 hours. Metabolism of XTT was quantified by measuring the absorbance at 450 nm IC50s were calculated using linear interpolation. For clonogenic survival assays, three hundred cells were plated per 60 mm tissue culture dish. The cells were allowed to attach overnight and then treated with vehicle or drug for 14 days. Colonies were fixed and stained with crystal violet (0.1% crystal violet in 95% ethanol). All conditions were measured in triplicate and each experiment was done in duplicate or triplicate. To determine necrosis, cells were treated with drug for a given time point. Media and cells were collected, centrifugated, and resuspended in 0.4% trypan blue (Invitrogen). Live and dead cells were counted on a hematocytometer.
(§3) The designation A reflects an IC50 of <1 nM; B reflects an IC50 ranging from 1 to 20 nM; and C is an IC50 of >20 nM. The designation “a” reflects a ratio of RCC4/RCC-VHL+ranging from 1 to ≦10; “b” reflects from 10 to ≦100; “c” reflects a ratio of >100. Compounds I-29 have an IC50 value of ≦10 μM when tested in the above assay.

RCC4 = assay: XTT cell viability assay in RCC4 cells (VHL-deficient renal carcinoma); type: cell-based; conditions: four days drug exposure
Description: as §1, §2, §3

Row | Structure (SMILES) | pIC50 (RCC4; Homo sapiens, 96 h) | Ratio (IC50 RCC4 Proficient VHL)/ IC50 RCC4 Deficient VHL) [1] | pIC50 (RCC4)
1 | Cc1oc(-c2ccc(C(=O)NCc3cccnc3)cc2)nc1CS(=O)(=O)C1CCNCC1 [Example 39, 4-(5-Methyl-4-((piperidin-4-ylsulfonyl)methyl)oxazol-2-yl)-N-(pyridin-3-ylmethyl)benzamide] | < 7.70 | b (from 10 to ≦100) | –
2 | Cc1oc(-c2ccc(C(=O)NCc3cccnc3)cc2)nc1CS(=O)(=O)[C@H]1CC[C@@H](N)CC1 [Example 41, 4-(4-(((1s,4s)-4-aminocyclohexylsulfonyl)methyl)-5-methyloxazol-2-yl)-N-(pyridin-3-ylmethyl)benzamide] | – | b (from 10 to ≦100) | < 7.70
3 | Cc1oc(-c2ccc(C(=O)NCc3cccnc3)cc2)nc1CS(=O)(=O)[C@H]1CC[C@H](N)CC1 [Example 44, 4-(4-[[(4-Aminocyclohexane)sulfonyl]methyl]-5-methyl-1,3-oxazol-2-yl)-N-(pyridin-3-ylmethyl)benzamide] | < 7.70 | b (from 10 to ≦100) | –
4 | Cc1oc(-c2ccc(C(=O)NCc3cccnc3)cc2)nc1CS(=O)(=O)[C@H]1CC[C@H](N2CCCC2)CC1 [Example 45, 4-[5-Methyl-4-([[4-(pyrrolidin-1-yl)cyclohexane]sulfonyl]methyl)-1,3-oxazol-2-yl]-N-(pyridin-3-ylmethyl)benzamide] | 7.70 to 9.00 | b (from 10 to ≦100) | –
5 | Cc1oc(-c2ccc(C(=O)NCc3cccnc3)cc2)nc1CS(=O)(=O)[C@H]1CC[C@H](N)C1 [Example 47, 4-[4-([[(1S,3S)-3-Aminocyclopentane]sulfonyl]methyl)-5-methyl-1,3-oxazol-2-yl]-N-(pyridin-3-ylmethyl)benzamide] | < 7.70 | b (from 10 to ≦100) | –
6 | Cc1oc(-c2ccc(C(=O)NCc3cccnc3)cc2)nc1CS(=O)(=O)[C@H]1CC[C@H](N2CCCCC2)C1 [Example 49, 4-[5-Methyl-4-([[(1S,3S)-3-(piperidin-1-yl)cyclopentane]sulfonyl]methyl)-1,3-oxazol-2-yl]-N-(pyridin-3-ylmethyl)benzamide] | – | b (from 10 to ≦100) | > 9.00

Continued, in another order:

Row | pIC50 (RCC4; Homo sapiens, 96 h) | Structure (SMILES) | Ratio (IC50 RCC4 Proficient VHL)/ IC50 RCC4 Deficient VHL) [1] | pIC50 (RCC4)
7 | > 9.00 | Cc1oc(-c2ccc(C(=O)NCc3cccnc3)cc2)nc1CS(=O)(=O)C1CCN(C)CC1 [Example 40, 4-(5-Methyl-4-((1-methylpiperidin-4-ylsulfonyl)methyl)oxazol-2-yl)-N-(pyridin-3-ylmethyl)benzamide] | b (from 10 to ≦100) | –
8 | > 9.00 | Cc1oc(-c2ccc(C(=O)NCc3cccnc3)cc2)nc1CS(=O)(=O)[C@H]1CC[C@@H](N2CCCC2)CC1 [Example 42, 4-[5-methyl-4-([[4-(pyrrolidin-1-yl)cyclohexane]sulfonyl]methyl)-1,3-oxazol-2-yl]-N-(pyridin-3-ylmethyl)benzamide] | b (from 10 to ≦100) | –
9 | > 9.00 | Cc1oc(-c2ccc(C(=O)NCc3cccnc3)cc2)nc1CS(=O)(=O)[C@H]1CC[C@@H](N2CCCCC2)CC1 [Example 43, 4-[5-Methyl-4-([[4-(piperidin-1-yl)cyclohexane]sulfonyl]methyl)-1,3-oxazol-2-yl]-N-(pyridin-3-ylmethyl)benzamide] | b (from 10 to ≦100) | –
10 | > 9.00 | Cc1oc(-c2ccc(C(=O)NCc3cccnc3)cc2)nc1CS(=O)(=O)[C@H]1CC[C@H](N2CCCCC2)CC1 [Example 46, 4-[5-Methyl-4-([[4-(piperidin-1-yl)cyclohexane]sulfonyl]methyl)-1,3-oxazol-2-yl]-N-(pyridin-3-ylmethyl)benzamide] | b (from 10 to ≦100) | –
11 | > 9.00 | Cc1oc(-c2ccc(C(=O)NCc3cccnc3)cc2)nc1CS(=O)(=O)[C@H]1CC[C@H](N2CCCC2)C1 [Example 48, 4-[5-Methyl-4-([[(1S,3S)-3-(pyrrolidin-1-yl)cyclopentane]sulfonyl]methyl)-1,3-oxazol-2-yl]-N-(pyridin-3-ylmethyl)benzamide] | b (from 10 to ≦100) | –
